Measurements taken from ChEMBL document CHEMBL3259721, “Base substituted 5'-O-(N-isoleucyl)sulfamoyl nucleoside analogues as potential antibacterial agents” (Bioorg Med Chem, 2014).
Active and inactive are the calls of the source. The rule behind the calls is not given here. Peptide text beside a SMILES is read from it. * marks the point of attachment. X6 = CC[C@H](C)[C@H](N*)C(=O)NS(=O)(=O)OC[C@H]1O[C@@H](n2cnc3c([N+](=O)[O-])cccc32)[C@H](O)[C@@H]1O; X7 = CC[C@H](C)[C@H](N*)C(=O)NS(=O)(=O)OC[C@H]1O[C@@H](n2cnc3c(=O)[nH]c(N)nc32)[C@H](O)[C@@H]1O; X3 = CC[C@H](C)[C@H](N*)C(=O)NS(=O)(=O)OC[C@H]1O[C@@H](n2ccc(=O)[nH]c2=O)[C@H](O)[C@@H]1O; X1 = CC[C@H](C)[C@H](N*)C(=O)NS(=O)(=O)OC[C@H]1O[C@@H](n2cnc3c(N)cccc32)[C@H](O)[C@@H]1O; X2 = CC[C@H](C)[C@H](N*)C(=O)NS(=O)(=O)OC[C@H]1O[C@@H](n2cnc3c(N)ncnc32)[C@H](O)[C@@H]1O; X4 = CC[C@H](C)[C@H](N*)C(=O)NS(=O)(=O)OC[C@H]1O[C@@H](n2cnc3c(O)ncnc32)[C@H](O)[C@@H]1O; X5 = CC[C@H](C)[C@H](N*)C(=O)NS(=O)(=O)OC[C@H]1O[C@@H](n2ccc(N)nc2=O)[C@H](O)[C@@H]1O; For = O=C*

Legend:
Escherichia coli [1] = experiment: Antibacterial activity against wild type Escherichia coli Ara-Yej (BW39758) assessed as growth inhibition in Luria broth at 10 to 60 uM after 8 hrs by broth dilution test; format: functional, organism-based
Escherichia coli [2] = experiment: Antibacterial activity against wild type Escherichia coli assessed as growth inhibition in Luria broth at 5 mM after 8 to 18 hrs by broth dilution test; format: functional, organism-based
[3] = target: Isoleucine--tRNA ligase (Escherichia coli K-12) (UniProt P00956); experiment: Inhibition of Isoleucine-tRNA synthetase in wild type Escherichia coli S30 cell extract assessed as inhibition of [C14]isoleucine incorporation in tRNA under in vitro aminoacylation conditions at 3.13 uM by liquid scintillation counting
Sequence of Isoleucine--tRNA ligase (Escherichia coli K-12) (P00956 whole entry, the tested form may be a part): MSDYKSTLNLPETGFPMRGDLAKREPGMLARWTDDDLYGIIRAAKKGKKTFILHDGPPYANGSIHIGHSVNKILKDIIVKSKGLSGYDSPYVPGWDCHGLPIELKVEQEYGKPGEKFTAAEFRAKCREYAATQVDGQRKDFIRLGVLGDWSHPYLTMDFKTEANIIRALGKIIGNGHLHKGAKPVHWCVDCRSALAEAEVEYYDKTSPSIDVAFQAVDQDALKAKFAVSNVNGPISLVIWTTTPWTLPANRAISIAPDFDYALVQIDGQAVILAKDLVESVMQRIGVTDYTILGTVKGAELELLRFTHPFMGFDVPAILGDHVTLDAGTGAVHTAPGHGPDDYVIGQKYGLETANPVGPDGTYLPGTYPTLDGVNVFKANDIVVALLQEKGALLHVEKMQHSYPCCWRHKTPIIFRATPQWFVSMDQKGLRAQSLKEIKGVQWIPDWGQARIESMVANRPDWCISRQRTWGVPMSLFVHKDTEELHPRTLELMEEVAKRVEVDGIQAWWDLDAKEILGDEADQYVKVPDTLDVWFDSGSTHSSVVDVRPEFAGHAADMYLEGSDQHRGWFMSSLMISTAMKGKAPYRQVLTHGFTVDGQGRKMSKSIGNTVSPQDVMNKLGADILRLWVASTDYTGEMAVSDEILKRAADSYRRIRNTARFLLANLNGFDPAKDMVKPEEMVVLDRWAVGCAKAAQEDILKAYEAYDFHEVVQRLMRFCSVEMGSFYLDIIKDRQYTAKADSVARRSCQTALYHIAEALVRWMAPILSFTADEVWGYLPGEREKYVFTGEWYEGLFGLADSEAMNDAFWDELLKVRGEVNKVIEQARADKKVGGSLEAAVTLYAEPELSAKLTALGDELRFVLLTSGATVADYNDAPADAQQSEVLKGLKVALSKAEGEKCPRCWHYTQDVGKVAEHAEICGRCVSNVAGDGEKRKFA

Escherichia coli [4] = experiment: Antibacterial activity against wild type Escherichia coli assessed as growth inhibition in Luria broth at 5 mM after 8 to 18 hrs by disc diffusion method; format: functional, organism-based

SMILES	growth inhibition (GI) (Escherichia coli [1])	growth inhibition (GI) (Escherichia coli [2])	inhibition [3]	growth inhibition (GI) (Escherichia coli [4])
CC[C@H](C)[C@H](NC(=O)[C@H](C)NC(=O)[C@H](CC(N)=O)NC(=O)CNC(=O)[C@@H](NC(=O)[C@H](CCCNC(=N)N)NC(=O)[C@H](CCSC)NC=O)[C@@H](C)O)C(=O)NS(=O)(=O)OC[C@H]1O[C@@H](n2cnc3c(N)cccc32)[C@H](O)[C@@H]1O (For-MRTGNA-X1)	Active	inactive	–	–
CC[C@H](C)[C@H](NC(=O)[C@H](C)NC(=O)[C@H](CC(N)=O)NC(=O)CNC(=O)[C@@H](NC(=O)[C@H](CCCNC(=N)N)NC(=O)[C@H](CCSC)NC=O)[C@@H](C)O)C(=O)NS(=O)(=O)OC[C@H]1O[C@@H](n2cnc3c(N)ncnc32)[C@H](O)[C@@H]1O (For-MRTGNA-X2)	Active	inactive	–	–
CC[C@H](C)[C@H](NC(=O)[C@H](C)NC(=O)[C@H](CC(N)=O)NC(=O)CNC(=O)[C@@H](NC(=O)[C@H](CCCNC(=N)N)NC(=O)[C@H](CCSC)NC=O)[C@@H](C)O)C(=O)NS(=O)(=O)OC[C@H]1O[C@@H](n2cnc3c(=O)[nH]c(N)nc32)[C@H](O)[C@@H]1O (For-MRTGNA-X7)	–	inactive	–	–
CC[C@H](C)[C@H](N)C(=O)NS(=O)(=O)OC[C@H]1O[C@@H](n2cnc3c(O)ncnc32)[C@H](O)[C@@H]1O	–	–	Active	inactive
CC[C@H](C)[C@H](NC(=O)[C@H](C)NC(=O)[C@H](CC(N)=O)NC(=O)CNC(=O)[C@@H](NC(=O)[C@H](CCCNC(=N)N)NC(=O)[C@H](CCSC)NC=O)[C@@H](C)O)C(=O)NS(=O)(=O)OC[C@H]1O[C@@H](n2cnc3c(O)ncnc32)[C@H](O)[C@@H]1O (For-MRTGNA-X4)	Active	inactive	–	–
CC[C@H](C)[C@H](N)C(=O)NS(=O)(=O)OC[C@H]1O[C@@H](n2cnc3c([N+](=O)[O-])cccc32)[C@H](O)[C@@H]1O	–	–	Active	inactive
CC[C@H](C)[C@H](NC(=O)[C@H](C)NC(=O)[C@H](CC(N)=O)NC(=O)CNC(=O)[C@@H](NC(=O)[C@H](CCCNC(=N)N)NC(=O)[C@H](CCSC)NC=O)[C@@H](C)O)C(=O)NS(=O)(=O)OC[C@H]1O[C@@H](n2ccc(=O)[nH]c2=O)[C@H](O)[C@@H]1O (For-MRTGNA-X3)	inactive	inactive	–	–
CC[C@H](C)[C@H](N)C(=O)NS(=O)(=O)OC[C@H]1O[C@@H](n2cnc3c(N)cccc32)[C@H](O)[C@@H]1O	–	–	Active	inactive
CC[C@H](C)[C@H](N)C(=O)NS(=O)(=O)OC[C@H]1O[C@@H](n2cnc3c(=O)[nH]c(N)nc32)[C@H](O)[C@@H]1O	–	–	Active	inactive
CC[C@H](C)[C@H](NC(=O)[C@H](C)NC(=O)[C@H](CC(N)=O)NC(=O)CNC(=O)[C@@H](NC(=O)[C@H](CCCNC(=N)N)NC(=O)[C@H](CCSC)NC=O)[C@@H](C)O)C(=O)NS(=O)(=O)OC[C@H]1O[C@@H](n2cnc3c([N+](=O)[O-])cccc32)[C@H](O)[C@@H]1O (For-MRTGNA-X6)	–	inactive	–	–
CC[C@H](C)[C@H](NC(=O)[C@H](C)NC(=O)[C@H](CC(N)=O)NC(=O)CNC(=O)[C@@H](NC(=O)[C@H](CCCNC(=N)N)NC(=O)[C@H](CCSC)NC=O)[C@@H](C)O)C(=O)NS(=O)(=O)OC[C@H]1O[C@@H](n2ccc(N)nc2=O)[C@H](O)[C@@H]1O (For-MRTGNA-X5)	–	inactive	–	–
CC[C@H](C)[C@H](N)C(=O)NS(=O)(=O)OC[C@H]1O[C@@H](n2ccc(N)nc2=O)[C@H](O)[C@@H]1O	–	–	Active	inactive
CC[C@H](C)[C@H](N)C(=O)NS(=O)(=O)OC[C@H]1O[C@@H](n2ccc(=O)[nH]c2=O)[C@H](O)[C@@H]1O	–	–	Active	inactive
CC[C@H](C)[C@H](N)C(=O)NS(=O)(=O)OC[C@H]1O[C@@H](n2cnc3c(N)ncnc32)[C@H](O)[C@@H]1O	–	–	Active	inactive
